Measurements as given in patent US8557800B2, “Sphingosine kinase inhibitors” (Apogee Biotechnology Corporation, priority 2005, dated 2013).

Columns and labels:
[1] = test system: MCF-7 human breast adenocarcinoma cells; assay: Cytotoxicity, SRB binding assay; format: cell-based; conditions: MCF7, inhibition of cell proliferation, 48 h, read-out: MCF-7 IC50
Experimental: To further assess the biological efficacies of the Compounds in intact cells, each Compound was evaluated for cytotoxicity using human cancer cell lines. These experiments followed methods that have been extensively used. Cell lines tested included MCF-7 human breast adenocarcinoma cells and MCF-10A non-transformed human breast epithelial cells. The indicated cell lines were treated with varying doses of the test Compound for 48 h. Cell survival was then determined using the SRB binding assay (Skehan et al., 1990, J Natl Cancer Inst 82: 1107), and the concentration of compound that inhibited proliferation by 50% (the IC50) was calculated. Values (in μM) represent the mean±sd for replicate trials.

[2] = test system: recombinant human SK; assay: Inhibition of recombinant human SK, LC/MS/MS assay; format: biochemical; conditions: 6 μg/ml compound
Experimental: SK activity is measured by incubation of the recombinant SK with [^3H]sphingosine and 1 mM ATP under defined conditions, followed by extraction of the assay mixture with chloroform:methanol under basic conditions. […] Radioactivity in aliquots of the aqueous phase is then quantified as a measure of [^3H]S1P formation.
In an alternate assay procedure, the recombinant human SK was incubated with unlabeled sphingosine and ATP as described above. After 30 minutes, the reactions were terminated by the addition of acetonitrile to directly extract the newly synthesized S1P. The amount of S1P in the samples is then quantified as follows. C17 base D-erythro-sphingosine and C17 SIP are used as internal standards for sphingosine and S1P, respectively. […] The lipids are then fractionation by High-Performance Liquid Chromatography using a C8-reverse phase column eluted with 1 mM methanolic ammonium formate/2 mM aqueous ammonium formate. […] Calibration curves are generated by plotting the peak area ratios of the synthetic standards for each sphingolipid, and used to determine the normalized amounts of sphingosine and S1P in the samples.
Each Compound of this invention was tested for its ability to inhibit recombinant SK using the LC/MS/MS assay described above.

Structure (SMILES)	IC50 [1]	Recombinant SK (% inhibition) [2]
CC(NC1CCN(C)CC1)C12CC3CC(CC(C3)C1)C2 (stereo not shown) [Compound 104, (1-Adamantan-1-yl-ethyl)-(1-methyl-piperidin-4-yl)-amine]	34 µM	0%
O=C(/C=C/c1ccc(Cl)cc1)C12CC3CC(C1)CC(c1ccc(Cl)cc1)(C3)C2 [Compound 130, 3-(4-Chloro-phenyl)-1-[3-(4-chloro-phenyl)-adamantan-1-yl]-propenone]	7 µM	38%
O=C(NCc1cc(F)cc(C(F)(F)F)c1)C12CC3CC(C1)CC(c1ccc(Cl)cc1)(C3)C2 [Compound 18, 3-(4-Chloro-phenyl)-adamantane-1-carboxylic acid 3-fluoro-5-trifluoromethyl-benzylamide]	19 µM	0%
O=C(NCc1cc(C(F)(F)F)cc(C(F)(F)F)c1)C12CC3CC(C1)CC(c1ccc(Cl)cc1)(C3)C2 [Compound 17, 3-(4-Chloro-phenyl)-adamantane-1-carboxylic acid 3,5-bis-trifluoromethyl-benzylamide]	17 µM	56%
O=C(/C=C/c1cnc[nH]1)C12CC3CC(C1)CC(c1ccc(Cl)cc1)(C3)C2 [Compound 135, 1-[3-(4-Chloro-phenyl)-adamantan-1-yl]-3-(1H-imidazol-4-yl)-propenone]	3 µM	64%
O=C(NCc1cc(F)cc(F)c1)C12CC3CC(C1)CC(c1ccc(Cl)cc1)(C3)C2 [Compound 20, 3-(4-Chloro-phenyl)-adamantane-1-carboxylic acid 3,5-difluoro-benzylamide]	33 µM	0%
O=C(NCCc1cccc(Oc2ccccc2)c1)C12CC3CC(C1)CC(c1ccc(Cl)cc1)(C3)C2 [Compound 46, 3-(4-Chloro-phenyl)-adamantane-1-carboxylic acid [2-(3-phenoxy-phenyl)-ethyl]-amide]	91 µM	4%
CSc1ccc(CNC(=O)C23CC4CC(C2)CC(c2ccc(Cl)cc2)(C4)C3)cc1 [Compound 14, 3-(4-Chloro-phenyl)-adamantane-1-carboxylic acid 4-methylsulfanyl-benzylamide]	36 µM	19%
O=C(NCc1ccc(Oc2ccccc2)cc1)C12CC3CC(C1)CC(c1ccc(Cl)cc1)(C3)C2 [Compound 34, 3-(4-Chloro-phenyl)-adamantane-1-carboxylic acid 4-phenoxy-benzylamide]	> 106 µM	0%
O=C(NCc1ccc(F)cc1Cl)C12CC3CC(C1)CC(c1ccc(Cl)cc1)(C3)C2 [Compound 25, 3-(4-Chloro-phenyl)-adamantane-1-carboxylic acid 2-chloro-4-fluoro-benzylamide]	87 µM	47%
O=C(NCCc1ccc2c(c1)OCO2)C12CC3CC(C1)CC(c1ccc(Cl)cc1)(C3)C2 [Compound 45, 3-(4-Chloro-phenyl)-adamantane-1-carboxylic acid (2-benzo[1,3]dioxol-5-yl-ethyl)-amide]	17 µM	64%
CN1CCN(NCC23CC4CC(C2)CC(c2ccc(Cl)cc2)(C4)C3)CC1 [Compound 83, [3-(4-Chloro-phenyl)-adamantan-1-ylmethyl]-(4-methyl-piperazin-1-yl)-amine]	5 µM	60%
CC(=O)Oc1ccc(NC(=O)C23CC4CC(C2)CC(c2ccc(Cl)cc2)(C4)C3)cc1 [Compound 7, Acetic acid 4-{[3-(4-chloro-phenyl)-adamantane-1-carbonyl]-amino}-phenyl ester]	3 µM	100%
O=C(NCc1ccc(-c2ccccc2)cc1)C12CC3CC(C1)CC(c1ccc(Cl)cc1)(C3)C2 [Compound 49, 3-(4-Chloro-phenyl)-adamantane-1-carboxylic acid (biphenyl-4-ylmethyl)-amide]	68 µM	33%
